How the values were obtained:
L-selectin [1] = experiment: Inhibition of L-selectin binding to GlyCAM-1 (ELISA with L-selectin-IgG chimera); settings: for Interaction of L-selectin with GlyCAM-1: FIG. 6, result in words
Experimental: (§1) The CAMO2 antibody is diluted to a concentration of 1.6 μg/ml in PBS with 0.1% NaN3, and 100 μl of this solution is dispensed into each well of a 96-well plate. The plate is incubated overnight at 4° C. to allow adsorption of the antibody onto the solid support. The plate is then washed three times with PBS containing 0.1% tween, and blocked with 200 μl/well of a 3% solution of BSA in PBS for 2 hours at room temperature.
(§2) A crude GlyCAM-1 preparation is produced by extracting mouse serum with chloroform/methanol solution, followed by dialysis against PBS. After removing the blocking solution, 100 μl of this solution is dispensed into each well, and the plate is incubated for 1 hour at room temperature.
Chimeric molecules of the invention and more specifically, complexes of L-selectin with a secondary antibody and streptavidin-alkaline phosphates are formed as follows:
2 mg/ml L-selectin-IgG chimera
(§3) 2/1000 dilution of biotinylated goat anti-human Fc F(ab')2 (Caltag)
(§4) 2/1000 dilution of streptavidin-alkaline phosphatase (Caltag)
In PBS with 2% BSA and 5% normal rabbit serum
In a separate 96-well plate, 80 μl of serial dilutions of the test inhibitors dissolved in PBS are dispensed into each well. To each inhibitor-containing well is added 80 μl of the selectin-IgG/antibody/streptavidin-alkaline phosphatase complex solution. The plate is then incubated for 30 minutes at 4° C.
The plate containing CAMO2 antibody and captured GlyCAM-1 is washed three times with PBS/0.1% TWEEN detergent, and […] of each selectin complex/inhibitor mixture is transferred to the wells of the GlyCAM-containing plate. This plate is then incubated for 30 minutes at room temperature.
Finally, the solutions are removed from the GlyCAM-1 plate and the plate is washed three times with PBS/0.1% TWEEN detergent. […] of alkaline phosphatase substrate solution (p-nitrophenyl phosphate in ethanolamine/MgCl2) buffer is added to each well to detect the presence of bound selectin complex and the plate is quantified with a 96-well plate reader at 405 nm.

P-selectin = experiment: Inhibition of P-selectin binding to GlyCAM-1 (ELISA with P-selectin-IgG chimera)
Experimental: as §1, §2
Chimeric molecules of the invention and more specifically, complexes of P-selection with a secondary antibody and streptavidin-alkaline phosphates are formed as follows:
4 μg/ml P-selectin-IgG chimera
as §3, §4
(§5) In PBS with 0.2% BSA and 5% normal rabbit serum
(§6) Assays as per Example 1-3 were used to determine IC50 's for the inhibition of L-, P- or E-selectin binding to GlyCAM-1 for a number of compounds.

E-selectin = experiment: Inhibition of E-selectin binding to GlyCAM-1 (ELISA with E-selectin-IgG chimera)
Experimental: as §1, §2
Chimeric molecules of the invention and more specifically, complexes of E-selection with a secondary antibody and streptavidin-alkaline phosphates are formed as follows:
4 μg/ml E-selectin-IgG chimera
as §3, §4, §5, §6

[2] = test system: lymphocyte attachment to HEV; settings: literature; cited from earlier work
L-selectin [3] = target: T1, L-selectin (Homo sapiens, UniProt P14151); settings: without sulfate; cited from earlier work
T1 sequence (P14151 39-372): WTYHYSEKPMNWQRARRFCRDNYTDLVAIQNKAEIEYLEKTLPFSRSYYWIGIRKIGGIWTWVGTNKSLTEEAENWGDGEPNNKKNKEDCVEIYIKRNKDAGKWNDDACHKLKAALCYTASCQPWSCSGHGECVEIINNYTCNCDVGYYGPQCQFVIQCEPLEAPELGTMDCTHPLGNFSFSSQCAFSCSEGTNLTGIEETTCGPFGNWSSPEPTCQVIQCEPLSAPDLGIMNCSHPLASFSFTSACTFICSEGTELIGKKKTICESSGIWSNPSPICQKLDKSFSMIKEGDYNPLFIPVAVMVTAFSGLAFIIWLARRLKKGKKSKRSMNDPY

[4] = test system: L-selectin, P-selectin and E-selectin; experiment: Binding of serum GlyCAM-1 to each of the different selectins; settings: Ig chimeras of the three selectins
Description: (See FIG. 5). […] These specific conditions are described in detail in Examples 1-3.

3'-sulfo Lewis a
IC50 (L-selectin [1]; L-selectin): 1700 µM
IC50 (P-selectin): 140 µM
IC50 (E-selectin): 4000 µM

O=S(=O)(O)OC[C@H]1O[C@@H](O[C@H]2[C@H](O)[C@@H](O)C(O)O[C@@H]2CO)[C@H](O)[C@@H](OS(=O)(=O)O)[C@H]1OS(=O)(=O)O (stereo partly drawn) [3',4',6'-trisulfo lactose]
IC50 (L-selectin [1]; L-selectin): 200 µM

O=S(=O)(O)OC[C@H]1O[C@@H](O[C@H]2[C@H](O)[C@@H](O)C(O)O[C@@H]2CO)[C@H](O)[C@@H](OS(=O)(=O)O)[C@H]1O (stereo partly drawn) [3',6'-disulfo lactose]
IC50 (L-selectin [1]; L-selectin): 400 µM

CC(=O)N[C@H]1C(O)O[C@H](CO)[C@@H](O[C@@H]2O[C@H](CO)[C@H](O)[C@H](OS(=O)(=O)O)[C@H]2O)[C@@H]1O[C@@H]1O[C@@H](C)[C@@H](O)[C@@H](O)[C@@H]1O (stereo partly drawn) [3'-sulfo Lewis x]
IC50 (L-selectin [1]; L-selectin): 3000 µM
IC50 (P-selectin): 3000 µM
IC50 (E-selectin): 4000 µM

O=S(=O)(O)OC[C@H]1O[C@@H](O[C@H]2[C@H](O)[C@@H](O)C(O)O[C@@H]2CO)[C@H](O)[C@@H](O)[C@H]1O (stereo partly drawn) [6'-sulfo lactose]
IC50 (L-selectin [1]; L-selectin): 10000 µM

O=C(O)CN(CCN(CC(=O)O)CC(=O)O)CC(=O)O [EDTA]
Interaction of L-selectin with GlyCAM-1 (L-selectin [1]): inhibited

O=P(O)(O)OC[C@H]1OC(O)[C@@H](O)[C@@H](O)[C@@H]1O (stereo partly drawn) [mannose-6-phosphate]
Interaction of L-selectin with GlyCAM-1 (L-selectin [1]): inhibited
IC50 (L-selectin [1]; L-selectin): 1500 µM
Lymphocyte attachment to HEV [2]: prevent lymphocyte attachment to HEV

O=P(O)(O)O[C@H]1[C@H](OP(=O)(O)O)[C@@H](OP(=O)(O)O)[C@H](OP(=O)(O)O)[C@@H](OP(=O)(O)O)[C@H]1OP(=O)(O)O [phytic acid]
IC50 (L-selectin [1]; L-selectin): 2 µM
IC50 (P-selectin): 0.2 µM

fucoidan
Interaction of L-selectin with GlyCAM-1 (L-selectin [1]): inhibited
IC50 for the inhibition of L-selectin binding to GlyCAM-1 (L-selectin [1]; L-selectin): 0.2 µg/mL
IC50 for the inhibition of P-selectin binding to GlyCAM-1 (P-selectin): 0.02 µg/mL
Lymphocyte attachment to HEV [2]: active

sialyl Lewis^x oligosaccharide [sLe^x]
Affinity for L-selectin (L-selectin [3]): very low affinity

B1: GlyCAM-1: a sulfated, fucosylated and sialylated glycoprotein of about 50 kd now termed GlyCAM-1 (protein, UniProt Q02596 20-151, looked up)
Glycosylation-dependent cell …: LPGSKDELQMKTQPTDAIPAAQSTPTSYTSEESTSSKDLSKEPSIFREELISKDNVVIESTKPENQEAQDGLRSGSSQLEETTRPTTSAATTSEENLTKSSQTVEEELGKIIEGFVTGAEDIISGASRITKS
Binding of serum GlyCAM-1 to the selectins [4]: will bind to each of the different selectins
